Data reported in patent publication US9856279B2 (AGIOS PHARMACEUTICALS, INC, priority 2011, dated 2018).

Assays:
IDH1 R132H = IDH1 R132H (Homo sapiens, UniProt O75874, R132H); test: Assay for IDH1 R132H inhibitors (NADPH/aKG, resazurin detection); format: biochemical; conditions: enzyme assay of Example 12; read-out: IDH1R132H IC50
In short: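 Compound added to substrate mix (8 uM NADPH, 2 mM aKG), then enzyme mix (0.2 μg/ml IDH1 R132H); 50 min RT in 20 mM Tris pH 7.5, 150 mM NaCl, 10 mM MgCl2, 0.03% BSA. Resazurin detection mix (30 μM) 5 min RT; resorufin fluorescence Ex544/Em590.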

HT1080 cells = test: Cellular assay for IDH1m inhibitors: inhibition of 2-HG production (LC-MS, 48 hours) in HT1080 cells; format: cell-based; conditions: Homo sapiens, HT-1080; inhibition of 2-HG production, HT1080 cells; read-out: HT1080 IC50
In short: (§1)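 The read-out is 2-HG in culture medium, measured by LC-MS after 48 h of compound exposure (0.2% DMSO) in cells plated overnight at 5000 per well in DMEM/10% FBS. IC50 is 50% reduction relative to DMSO wells. Luminescent viability (Cell Titer Glo) followed at 72 h.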

U87MG cells = test: Cellular assay for IDH1m inhibitors: inhibition of 2-HG production (LC-MS, 48 hours) in U87MG cells; format: cell-based; conditions: Homo sapiens, U-87 MG, inhibition of 2-HG production, U87R132H cells; read-out: U87R132H IC50
In short: as §1

IDH1 R132H, sequence (O75874 whole entry R132H): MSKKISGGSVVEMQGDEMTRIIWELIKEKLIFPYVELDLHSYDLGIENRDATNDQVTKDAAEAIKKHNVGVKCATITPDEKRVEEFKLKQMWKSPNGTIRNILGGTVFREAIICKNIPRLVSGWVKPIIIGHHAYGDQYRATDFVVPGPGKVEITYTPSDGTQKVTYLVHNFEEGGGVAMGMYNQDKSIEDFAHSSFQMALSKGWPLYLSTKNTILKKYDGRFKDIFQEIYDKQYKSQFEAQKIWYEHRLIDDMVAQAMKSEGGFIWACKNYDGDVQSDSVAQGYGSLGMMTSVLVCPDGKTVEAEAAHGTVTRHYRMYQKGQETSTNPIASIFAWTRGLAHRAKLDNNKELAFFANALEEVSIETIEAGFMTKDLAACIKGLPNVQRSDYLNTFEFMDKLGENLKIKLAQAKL

`COCCC(=O)N1CCN(c2nc(C3CC3)c(-c3cccc4[nH]ccc34)cc2C#N)C[C@H]1C` [Compound 287, (R)-6-cyclopropyl-5-(1H-indol-4-yl)-2-(4-(3-methoxypropanoyl)-3-methylpiperazin-1-yl)nicotinonitrile] showed an IC50 (IDH1 R132H) of less than 500 nM, an IC50 (HT1080 cells) of 1000 to 10000 nM and an IC50 (U87MG cells) of 1000 to 10000 nM.
Compound `COCCC(=O)N1CCN(c2nc(C3CC3)c(-c3cccc4cccnc34)cc2C#N)C[C@H]1C` [Compound 342, (R)-6-cyclopropyl-2-(4-(3-methoxypropanoyl)-3-methylpiperazin-1-yl)-5-(quinolin-8-yl)nicotinonitrile] has an IC50 (IDH1 R132H) of less than 500 nM, an IC50 (HT1080 cells) of less than 500 nM and an IC50 (U87MG cells) of less than 500 nM.
With `C=Cc1cc(-c2c(C3CC3)nc(N3CCN(C(=O)CC4CCCC4)[C@H](C4CC4)C3)c(C#N)c2C)ccn1` [Compound 782, (R)-6-(4-(2-cyclopentylacetyl)-3-cyclopropylpiperazin-1-yl)-2-cyclopropyl-4-methyl-2′-vinyl-3,4′-bipyridine-5-carbonitrile] the IC50 (IDH1 R132H) was less than 500 nM, the IC50 (HT1080 cells) was less than 500 nM and the IC50 (U87MG cells) was less than 500 nM.
For `C=Cc1cc(-c2c(C3CC3)nc(N3CCN(C(=O)CCCOC)[C@H](C(C)C)C3)c(C#N)c2C)ccn1` [Compound 788, (R)-2-cyclopropyl-6-(3-isopropyl-4-(4-methoxybutanoyl)piperazin-1-yl)-4-methyl-2′-vinyl-3,4′-bipyridine-5-carbonitrile], the IC50 (IDH1 R132H) was less than 500 nM, the IC50 (HT1080 cells) was less than 500 nM and the IC50 (U87MG cells) was less than 500 nM.
`C=Cc1cc(-c2c(C3CC3)nc(N3CCN(C(=O)CCOC)[C@H](C4CC4)C3)c(C#N)c2C)c2ccncc2n1` [Compound 746, 6-cyclopropyl-2-((R)-3-cyclopropyl-4-(3-methoxypropanoyl)piperazin-1-yl)-4-methyl-5-(2-vinyl-1,7-naphthyridin-4-yl)nicotinonitrile] gave an IC50 (IDH1 R132H) of less than 500 nM, an IC50 (HT1080 cells) of less than 500 nM and an IC50 (U87MG cells) of less than 500 nM.
Compound `COCCC(=O)N1CCN(c2nc(C3CC3)c(-c3cccc(NC(=O)[C@@H](C)Cl)c3)cc2C#N)C[C@H]1C` [Compound 462, (R)-2-chloro-N-(3-(5-cyano-2-cyclopropyl-6-((R)-4-(3-methoxypropanoyl)-3-methylpiperazin-1-yl)pyridin-3-yl)phenyl)propanamide] has an IC50 (IDH1 R132H) of 500 to 1000 nM, an IC50 (HT1080 cells) of 1000 to 10000 nM and an IC50 (U87MG cells) of 1000 to 10000 nM.
For `C=Cc1cc(-c2cc(C#N)c(N3CCN(C(=O)CCOC)[C@H](C)C3)nc2C2CC2)ncn1` [Compound 597, (R)-6-cyclopropyl-2-(4-(3-methoxypropanoyl)-3-methylpiperazin-1-yl)-5-(6-vinylpyrimidin-4-yl)nicotinonitrile], the IC50 (IDH1 R132H) was less than 500 nM, the IC50 (HT1080 cells) was less than 500 nM and the IC50 (U87MG cells) was less than 500 nM.
Work on `C=Cc1cc(-c2cc(C#N)c(N3CCN(C(=O)CC4CCO4)[C@H](C)C3)nc2C2CC2)ccn1` (stereo partly drawn) [Compound 649, 2-cyclopropyl-6-((3R)-3-methyl-4-(2-(oxetan-2-yl)acetyl)piperazin-1-yl)-2′-vinyl-[3,4′-bipyridine]-5-carbonitrile] yielded an IC50 (IDH1 R132H) of less than 500 nM, an IC50 (HT1080 cells) of less than 500 nM and an IC50 (U87MG cells) of less than 500 nM.
Compound `C=CC(=O)N(C)c1cccc(-c2cc(C#N)c(N3CCN(C(=O)CCOC)[C@H](C)C3)nc2C2CC2)c1` [Compound 427] has an IC50 (IDH1 R132H) of less than 500 nM, an IC50 (HT1080 cells) of less than 500 nM and an IC50 (U87MG cells) of less than 500 nM.
`C=Cc1cc(-c2c(C3CC3)nc(N3CCN(C(=O)CCO)[C@H](C4CC4)C3)c(C#N)c2C)cnn1` [Compound 776, (R)-6-cyclopropyl-2-(3-cyclopropyl-4-(3-hydroxypropanoyl)piperazin-1-yl)-4-methyl-5-(6-vinylpyridazin-4-yl)nicotinonitrile] showed an IC50 (IDH1 R132H) of less than 500 nM, an IC50 (HT1080 cells) of less than 500 nM and an IC50 (U87MG cells) of less than 500 nM.
For `C=Cc1cc(-c2cc(C#N)c(N3CCN(C(=O)CCO)[C@H](C(C)C)C3)nc2C2CC2)c2ccncc2n1` [Compound 681, (R)-6-cyclopropyl-2-(4-(3-hydroxypropanoyl)-3-isopropylpiperazin-1-yl)-5-(2-vinyl-1,7-naphthyridin-4-yl)nicotinonitrile], the IC50 (IDH1 R132H) was less than 500 nM, the IC50 (HT1080 cells) was less than 500 nM and the IC50 (U87MG cells) was less than 500 nM.
With `C=Cc1cc(Nc2cc(C#N)c(N3CCN(C(=O)CCO)[C@H](C)C3)nc2C2CC2)ccn1` [Compound 581, (R)-6-cyclopropyl-2-(4-(3-hydroxypropanoyl)-3-methylpiperazin-1-yl)-5-((2-vinylpyridin-4-yl)amino)nicotinonitrile] the IC50 (IDH1 R132H) was less than 500 nM, the IC50 (HT1080 cells) was less than 500 nM and the IC50 (U87MG cells) was less than 500 nM.
With `C#CC(=O)Nc1cccc(-c2cc(C#N)c(N3CCN(C(=O)CCOC)[C@H](C)C3)nc2C2CC2)c1` [Compound 428, (R)—N-(3-(5-cyano-2-cyclopropyl-6-(4-(3-methoxypropanoyl)-3-methylpiperazin-1-yl)pyridin-3-yl)phenyl)propiolamide] the IC50 (IDH1 R132H) was less than 500 nM, the IC50 (HT1080 cells) was less than 500 nM and the IC50 (U87MG cells) was 500 to 1000 nM.
With `COCCC(=O)N1CCN(c2nc(C3CC3)c(OC(C)c3ccncc3)cc2C#N)C[C@H]1C` (stereo partly drawn) [Compound 388, 6-cyclopropyl-2-((R)-4-(3-methoxypropanoyl)-3-methylpiperazin-1-yl)-5-(1-(pyridin-4-yl)ethoxy)nicotinonitrile] the IC50 (IDH1 R132H) was less than 500 nM, the IC50 (HT1080 cells) was 1000 to 10000 nM and the IC50 (U87MG cells) was 500 to 1000 nM.
`C=Cc1cc(-c2cc(C#N)c(N3CCN(C(=O)CCO)[C@H](C4CC4)C3)nc2C2CC2)c2cc[nH]c2n1` [Compound 740, (R)-6-cyclopropyl-2-(3-cyclopropyl-4-(3-hydroxypropanoyl)piperazin-1-yl)-5-(6-vinyl-1H-pyrrolo[2,3-b]pyridin-4-yl)nicotinonitrile] was tested, and the IC50 (IDH1 R132H) was less than 500 nM, the IC50 (HT1080 cells) was less than 500 nM and the IC50 (U87MG cells) was less than 500 nM.
With `C=Cc1cc(-c2cc(C#N)c(N3CCN(C(=O)CCO)[C@H](C)C3)nc2C2CC2)c2ccncc2n1` [Compound 609, (R)-6-cyclopropyl-2-(4-(3-hydroxypropanoyl)-3-methylpiperazin-1-yl)-5-(2-vinyl-1,7-naphthyridin-4-yl)nicotinonitrile] the IC50 (IDH1 R132H) was less than 500 nM, the IC50 (HT1080 cells) was less than 500 nM and the IC50 (U87MG cells) was less than 500 nM.
For `CCO[C@@H]1C[C@@H]1C(=O)N1CCN(c2nc(C3CC3)c(-c3cccc4cnccc34)cc2C#N)C[C@H]1C1CC1` [Compound 526, 6-cyclopropyl-2-((R)-3-cyclopropyl-4-((1S,2R)-2-ethoxycyclopropanecarbonyl)piperazin-1-yl)-5-(isoquinolin-5-yl)nicotinonitrile], the IC50 (IDH1 R132H) was 500 to 1000 nM, the IC50 (HT1080 cells) was less than 500 nM and the IC50 (U87MG cells) was less than 500 nM.
In the case of `C=CC(=O)Nc1cccc(-c2cc(C#N)c(N3CCN(C(=O)CCOC)[C@H](C)C3)nc2C2CC2)c1` [Compound 343, (R)—N-(3-(5-cyano-2-cyclopropyl-6-(4-(3-methoxypropanoyl)-3-methylpiperazin-1-yl)pyridin-3-yl)phenyl)acrylamide], the IC50 (IDH1 R132H) is reported as less than 500 nM, the IC50 (HT1080 cells) is reported as less than 500 nM and the IC50 (U87MG cells) is reported as less than 500 nM.
`C=Cc1cnnc(-c2cc(C#N)c(N3CCN(C(=O)CCO)[C@H](C4CC4)C3)nc2C2CC2)c1` [Compound 716, (R)-6-cyclopropyl-2-(3-cyclopropyl-4-(3-hydroxypropanoyl)piperazin-1-yl)-5-(5-vinylpyridazin-3-yl)nicotinonitrile] was tested, and the IC50 (IDH1 R132H) was less than 500 nM, the IC50 (HT1080 cells) was less than 500 nM and the IC50 (U87MG cells) was less than 500 nM.
In the case of `COCCC(=O)N1CCN(c2nc(C3CC3)c(-c3ccc4nc(N)sc4c3)cc2C#N)C[C@H]1C` [Compound 417, (R)-5-(2-amino-benzothiazol-6-yl)-6-cyclopropyl-2-[4-(3-methoxy-propionyl)-3-methyl-piperazin-1-yl]-nicotinonitrile], the IC50 (IDH1 R132H) is reported as less than 500 nM, the IC50 (HT1080 cells) is reported as less than 500 nM and the IC50 (U87MG cells) is reported as less than 500 nM.
`C=Cc1cc(-c2cc(C#N)c(N3CCN(C(=O)CCOC)[C@H](C(C)C)C3)nc2C2CC2)c2ccncc2n1` [Compound 611, (R)-6-cyclopropyl-2-(3-isopropyl-4-(3-methoxypropanoyl)piperazin-1-yl)-5-(2-vinyl-1,7-naphthyridin-4-yl)nicotinonitrile] was tested, and the IC50 (IDH1 R132H) was less than 500 nM, the IC50 (HT1080 cells) was less than 500 nM and the IC50 (U87MG cells) was less than 500 nM.
Work on `COCCC(=O)N1CCN(c2nc(C3CC3)c(-c3cccc(NC(=O)C(C)=O)c3)cc2C#N)C[C@H]1C` [Compound 416, (R)—N-(3-(5-cyano-2-cyclopropyl-6-(4-(3-methoxypropanoyl)-3-methylpiperazin-1-yl)pyridin-3-yl)phenyl)-2-oxopropanamide] yielded an IC50 (IDH1 R132H) of 500 to 1000 nM, an IC50 (HT1080 cells) of 1000 to 10000 nM and an IC50 (U87MG cells) of 500 to 1000 nM.
`C=C(F)C(=O)Nc1cccc(-c2cc(C#N)c(N3CCN(C(=O)CCOC)[C@H](C)C3)nc2C2CC2)c1` [Compound 431, (R)—N-(3-(5-cyano-2-cyclopropyl-6-(4-(3-methoxypropanoyl)-3-methylpiperazin-1-yl)pyridin-3-yl)phenyl)-2-fluoroacrylamide] gave an IC50 (IDH1 R132H) of 500 to 1000 nM, an IC50 (HT1080 cells) of 500 to 1000 nM and an IC50 (U87MG cells) of 500 to 1000 nM.
For `C=Cc1cc(-c2c(C3CC3)nc(N3CCN(C(=O)C[C@H]4CCO4)[C@H](C(C)C)C3)c(C#N)c2C)ccn1` [Compound 781, 2-cyclopropyl-6-((R)-3-isopropyl-4-(2-((R)-oxetan-2-yl)acetyl)piperazin-1-yl)-4-methyl-2′-vinyl-3,4′-bipyridine-5-carbonitrile], the IC50 (IDH1 R132H) was less than 500 nM, the IC50 (HT1080 cells) was less than 500 nM and the IC50 (U87MG cells) was less than 500 nM.
In the case of `C=Cc1cc(-c2cc(C#N)c(N3CCN(C(=O)CCCO)[C@H](C4CC4)C3)nc2C2CC2)ccn1` [Compound 753, (R)-2-cyclopropyl-6-(3-cyclopropyl-4-(4-hydroxybutanoyl)piperazin-1-yl)-2′-vinyl-3,4′-bipyridine-5-carbonitrile], the IC50 (IDH1 R132H) is reported as less than 500 nM, the IC50 (HT1080 cells) is reported as less than 500 nM and the IC50 (U87MG cells) is reported as less than 500 nM.
